Source: patent US10167262B2, “Herbicidal substituted 3-arylpyrazoles” (FMC CORPORATION, priority 2014, dated 2019)

Assays:
Assay type in all cases: in vivo
[1] = system: barnyardgrass (Echinochloa crus-galli); test: Test A pre-/postemergence greenhouse herbicide test, visual injury rating 0-100
Method in brief: (§1)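 Test chemicals in a non-phytotoxic solvent/surfactant blend were sprayed onto loam–sand soil after planting (pre) and onto 2–10 cm seedlings at one to two leaves (post). Greenhouse hold approx. 10 days; injury then judged visually.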

corn (Zea mays) = test: as above
Method in brief: as §1

[2] = system: giant foxtail (Setaria faberii); test: as above
Method in brief: as §1

[3] = system: large (Lg) crabgrass (Digitaria sanguinalis); test: as above
Method in brief: as §1

[4] = system: morningglory (Ipomoea spp.); test: as above
Method in brief: as §1

[5] = system: pigweed (Amaranthus retroflexus); test: as above
Method in brief: as §1

[6] = system: velvetleaf (Abutilon theophrasti); test: as above
Method in brief: as §1

[7] = system: wheat (Triticum aestivum); test: as above
Method in brief: as §1

[8] = system: johnsongrass (Sorghum halepense); test: Test C pre-/postemergence greenhouse test, plant response rating 0-100
Method in brief: (§2)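 Seeds were sown in a loam soil–sand blend and sprayed preemergence with test chemicals in a non-phytotoxic solvent mixture containing surfactant; postemergence plants in peat/vermiculite medium were treated at 2–18 cm (1- to 4-leaf stage). After 13 to 15 days in the greenhouse, injury was rated visually against untreated controls.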

[9] = system: lambsquarters (Chenopodium album); test: as above
Method in brief: as §2

[10] = system: morningglory (Ipomoea coccinea); test: as above
Method in brief: as §2

[11] = system: velvetleaf (Abutilon theophrasti); test: as above
Method in brief: as §2

[12] = Postemergence, 250 g ai/ha, scale 0 to 100
[13] = Postemergence, 500 g ai/ha, scale 0 to 100

O=Cn1cc(C(=O)c2ccccc2)c(-c2cc(Cl)cc(Cl)c2)n1 [Compound 28]
100: Plant response rating, Lambsquarters ([9]; Preemergence, 62 g ai/ha) | Plant response rating, Lambsquarters ([9]; Preemergence, 125 g ai/ha) | Plant response rating, Lambsquarters ([9]; Preemergence, 250 g ai/ha) | Plant response rating, Lambsquarters ([9]; Preemergence, 500 g ai/ha)
60: Plant response rating (0 to 100 scale), Velvetleaf ([6]; Preemergence, 500 g ai/ha)
20: Velvetleaf plant response rating (0 = no effect, 100 = complete control) ([6]; Preemergence, 125 g ai/ha)
85: Plant response rating, Velvetleaf [11, 12] | Plant response rating, Velvetleaf [11, 13]
98: Plant response rating, Lambsquarters [9, 12] | Plant response rating, Lambsquarters [9, 13] | Plant response rating, Velvetleaf ([11]; Preemergence, 250 g ai/ha) | Plant response rating, Velvetleaf ([11]; Preemergence, 500 g ai/ha)
65: Plant response rating, Velvetleaf ([11]; Preemergence, 62 g ai/ha)
90: Plant response rating (0 to 100 scale), Pigweed ([5]; Postemergence, 500 g ai/ha) | Plant response rating (0 to 100 scale), Pigweed ([5]; Preemergence, 500 g ai/ha) | Plant response rating (0 to 100 scale), Velvetleaf ([6]; Postemergence, 500 g ai/ha) | Plant response rating (0 to 100), Lambsquarters ([9]; Postemergence, 62 g ai/ha) | Plant response rating (0 to 100), Lambsquarters ([9]; Postemergence, 125 g ai/ha) | Plant response rating, Velvetleaf ([11]; Preemergence, 125 g ai/ha)
0: Plant response rating (0 to 100 scale), Barnyardgrass ([1]; Postemergence, 125 g ai/ha) | Plant response rating (0 to 100 scale), Barnyardgrass ([1]; Postemergence, 500 g ai/ha) | Barnyardgrass plant response rating (0 = no effect, 100 = complete control) ([1]; Preemergence, 125 g ai/ha) | Plant response rating (0 to 100 scale), Barnyardgrass ([1]; Preemergence, 500 g ai/ha) | Plant response rating (0 to 100 scale), Corn (corn (Zea mays); Postemergence, 125 g ai/ha) | Plant response rating (0 to 100 scale), Corn (corn (Zea mays); Postemergence, 500 g ai/ha) | Corn plant response rating (0 = no effect, 100 = complete control) (corn (Zea mays); Preemergence, 125 g ai/ha) | Plant response rating (0 to 100 scale), Corn (corn (Zea mays); Preemergence, 500 g ai/ha) | Plant response rating (0 to 100 scale), Foxtail, Giant ([2]; Postemergence, 125 g ai/ha) | Plant response rating (0 to 100 scale), Foxtail, Giant ([2]; Postemergence, 500 g ai/ha) | Foxtail, Giant plant response rating (0 = no effect, 100 = complete control) ([2]; Preemergence, 125 g ai/ha) | Plant response rating (0 to 100 scale), Foxtail, Giant ([2]; Preemergence, 500 g ai/ha) | Plant response rating (0 to 100 scale), Crabgrass, Large ([3]; Postemergence, 125 g ai/ha) | Plant response rating (0 to 100 scale), Crabgrass, Large ([3]; Postemergence, 500 g ai/ha) | Crabgrass, Large plant response rating (0 = no effect, 100 = complete control) ([3]; Preemergence, 125 g ai/ha) | Plant response rating (0 to 100 scale), Crabgrass, Large ([3]; Preemergence, 500 g ai/ha) | Plant response rating (0 to 100 scale), Morningglory ([4]; Postemergence, 125 g ai/ha) | Plant response rating (0 to 100 scale), Morningglory ([4]; Postemergence, 500 g ai/ha) | Morningglory plant response rating (0 = no effect, 100 = complete control) ([4]; Preemergence, 125 g ai/ha) | Plant response rating (0 to 100 scale), Morningglory ([4]; Preemergence, 500 g ai/ha) | Plant response rating (0 to 100 scale), Wheat ([7]; Postemergence, 125 g ai/ha) | Plant response rating (0 to 100 scale), Wheat ([7]; Postemergence, 500 g ai/ha) | Wheat plant response rating (0 = no effect, 100 = complete control) ([7]; Preemergence, 125 g ai/ha) | Plant response rating (0 to 100 scale), Wheat ([7]; Preemergence, 500 g ai/ha) | Plant response rating (0 to 100), Johnsongrass ([8]; Postemergence, 62 g ai/ha) | Plant response rating (0 to 100), Johnsongrass ([8]; Postemergence, 125 g ai/ha) | Plant response rating, Johnsongrass [8, 12] | Plant response rating, Johnsongrass [8, 13] | Plant response rating, Johnsongrass ([8]; Preemergence, 62 g ai/ha) | Plant response rating, Johnsongrass ([8]; Preemergence, 125 g ai/ha) | Plant response rating, Johnsongrass ([8]; Preemergence, 250 g ai/ha) | Plant response rating, Johnsongrass ([8]; Preemergence, 500 g ai/ha) | Plant response rating (0 to 100), Morningglory ([10]; Postemergence, 62 g ai/ha) | Plant response rating (0 to 100), Morningglory ([10]; Postemergence, 125 g ai/ha) | Plant response rating, Morningglory [10, 12] | Plant response rating, Morningglory [10, 13] | Plant response rating, Morningglory ([10]; Preemergence, 62 g ai/ha) | Plant response rating, Morningglory ([10]; Preemergence, 125 g ai/ha) | Plant response rating, Morningglory ([10]; Preemergence, 250 g ai/ha) | Plant response rating, Morningglory ([10]; Preemergence, 500 g ai/ha)
80: Plant response rating (0 to 100 scale), Pigweed ([5]; Postemergence, 125 g ai/ha) | Pigweed plant response rating (0 = no effect, 100 = complete control) ([5]; Preemergence, 125 g ai/ha) | Plant response rating (0 to 100 scale), Velvetleaf ([6]; Postemergence, 125 g ai/ha) | Plant response rating (0 to 100), Velvetleaf ([11]; Postemergence, 62 g ai/ha) | Plant response rating (0 to 100), Velvetleaf ([11]; Postemergence, 125 g ai/ha)

O=C(c1ccccc1)c1cn(S(=O)(=O)CCl)nc1-c1cc(Cl)cc(Cl)c1 [Compound 1]
90: Plant response rating (0 to 100 scale), Pigweed ([5]; Postemergence, 500 g ai/ha) | Plant response rating (0 to 100 scale), Velvetleaf ([6]; Postemergence, 125 g ai/ha) | Plant response rating (0 to 100 scale), Velvetleaf ([6]; Postemergence, 500 g ai/ha)
70: Plant response rating (0 to 100), Lambsquarters ([9]; Postemergence, 62 g ai/ha) | Plant response rating (0 to 100), Velvetleaf ([11]; Postemergence, 62 g ai/ha)
0: Plant response rating (0 to 100 scale), Barnyardgrass ([1]; Postemergence, 125 g ai/ha) | Plant response rating (0 to 100 scale), Barnyardgrass ([1]; Postemergence, 500 g ai/ha) | Barnyardgrass plant response rating (0 = no effect, 100 = complete control) ([1]; Preemergence, 125 g ai/ha) | Plant response rating (0 to 100 scale), Barnyardgrass ([1]; Preemergence, 500 g ai/ha) | Plant response rating (0 to 100 scale), Corn (corn (Zea mays); Postemergence, 125 g ai/ha) | Plant response rating (0 to 100 scale), Corn (corn (Zea mays); Postemergence, 500 g ai/ha) | Corn plant response rating (0 = no effect, 100 = complete control) (corn (Zea mays); Preemergence, 125 g ai/ha) | Plant response rating (0 to 100 scale), Corn (corn (Zea mays); Preemergence, 500 g ai/ha) | Plant response rating (0 to 100 scale), Foxtail, Giant ([2]; Postemergence, 125 g ai/ha) | Plant response rating (0 to 100 scale), Foxtail, Giant ([2]; Postemergence, 500 g ai/ha) | Foxtail, Giant plant response rating (0 = no effect, 100 = complete control) ([2]; Preemergence, 125 g ai/ha) | Plant response rating (0 to 100 scale), Foxtail, Giant ([2]; Preemergence, 500 g ai/ha) | Plant response rating (0 to 100 scale), Crabgrass, Large ([3]; Postemergence, 125 g ai/ha) | Plant response rating (0 to 100 scale), Crabgrass, Large ([3]; Postemergence, 500 g ai/ha) | Crabgrass, Large plant response rating (0 = no effect, 100 = complete control) ([3]; Preemergence, 125 g ai/ha) | Plant response rating (0 to 100 scale), Crabgrass, Large ([3]; Preemergence, 500 g ai/ha) | Plant response rating (0 to 100 scale), Morningglory ([4]; Postemergence, 125 g ai/ha) | Plant response rating (0 to 100 scale), Morningglory ([4]; Postemergence, 500 g ai/ha) | Morningglory plant response rating (0 = no effect, 100 = complete control) ([4]; Preemergence, 125 g ai/ha) | Plant response rating (0 to 100 scale), Morningglory ([4]; Preemergence, 500 g ai/ha) | Plant response rating (0 to 100 scale), Wheat ([7]; Postemergence, 125 g ai/ha) | Plant response rating (0 to 100 scale), Wheat ([7]; Postemergence, 500 g ai/ha) | Wheat plant response rating (0 = no effect, 100 = complete control) ([7]; Preemergence, 125 g ai/ha) | Plant response rating (0 to 100 scale), Wheat ([7]; Preemergence, 500 g ai/ha) | Plant response rating (0 to 100), Johnsongrass ([8]; Postemergence, 62 g ai/ha) | Plant response rating (0 to 100), Johnsongrass ([8]; Postemergence, 125 g ai/ha) | Plant response rating, Johnsongrass [8, 12] | Plant response rating (0 to 100), Morningglory ([10]; Postemergence, 62 g ai/ha) | Plant response rating (0 to 100), Morningglory ([10]; Postemergence, 125 g ai/ha) | Plant response rating, Morningglory [10, 12]
40: Pigweed plant response rating (0 = no effect, 100 = complete control) ([5]; Preemergence, 125 g ai/ha)
75: Plant response rating (0 to 100), Velvetleaf ([11]; Postemergence, 125 g ai/ha)
20: Velvetleaf plant response rating (0 = no effect, 100 = complete control) ([6]; Preemergence, 125 g ai/ha) | Plant response rating (0 to 100 scale), Velvetleaf ([6]; Preemergence, 500 g ai/ha)
80: Plant response rating (0 to 100 scale), Pigweed ([5]; Postemergence, 125 g ai/ha) | Plant response rating (0 to 100 scale), Pigweed ([5]; Preemergence, 500 g ai/ha) | Plant response rating, Velvetleaf [11, 12]
85: Plant response rating (0 to 100), Lambsquarters ([9]; Postemergence, 125 g ai/ha) | Plant response rating, Lambsquarters [9, 12]
